For data set [1] the following is noted: cynomolgus monkey, in vivo, 15 mg/kg.
Experimental: (§1) Four male cynomolgus monkeys were used in the study. […] The dosing volume was 10 mL/kg. Blood samples (2 mL per sample) were obtained prior to dosing (0 hr) and at 0.5, 1, 2, 4, 6, 8, 12, 24, 32 and 48 hr after the oral dose. […] Blood samples (2 mL) were obtained pre-dose (0 hr) and at 5 mm., 0.5, 1, 2, 4, 6, 8, 12, 24, 32 and 48 hr post-dose. Blood samples were collected using a stainless steel needle and vacutainer tube containing sodium heparin as the anticoagulant. Blood samples were placed on ice after collection and centrifuged at approximately 4° C. Plasma samples was separated, frozen and stored at approximately −70° C. prior to analysis.
(§2) Pharmacokinetic parameters were calculated using the pharmacokinetics analysis program WinNonlin, version 2.1 (Scientific Consulting Inc.) from the individual animal concentration vs. time profiles. […] For the purpose of this analysis, no attempt was made to back extrapolate the concentration immediately after the IV bolus dose, rather the concentration at 0 hr (C0, immediately after dosing) was assumed to be equal to the first measured concentration (at 5 minutes, C5min). […] The terminal half-life (t1/2) was determined by 0.693/λ, where λ is the terminal rate constant and is determined by a log-linear fitting of the terminal portion of the concentration-time curve. AUC0-4 was calculated by AUC0-t+Ct/λ, where AUC0-t was the AUC from time 0 to t, the last quantifiable time point and Ct was the last quantifiable concentration. The area under the plasma concentration-time curve from time 0 to t (AUC0-t) was calculated using the linear trapezoidal method. Systemic clearance (CLT) after the iv dose was calculated using the formula of Dose/AUC0-4. The volume of distribution at steady-state (Vdss) was calculated using the formula of MRTiv×CLT, where MRTiv is the mean residence time after iv dosing and equals AUMC0-4/AUC0-4. For the oral dose, Cmax and tmax values were obtained by inspection of the concentration vs. time curves.
Data set [2] in a line: Pharmacokinetics of tigecycline after single oral (gavage) and intravenous dose in 0.9% saline.
Experimental: as §1, §2
Another data set relates to cell monolayer. The following applies: pH 6.

“And” between values parts separate entries of the source, which are not always exact repeats. Equal entries are not always repeated. Where two headings read alike, the source gives them in different places. Marks after values point to notes of the source that are not given here.

As a reminder, the Cmax is the highest concentration seen after dosing.

Tigecycline: the results for the “AUC0-t or 0-∞” value in data set [1] and in data set [1] (po) were 18267 and 163, respectively. The same substance gave an AUC0-4 in data set [2] (5 mg/kg iv, animals 1-4 and Mean) of 20178 ng·h/mL. Moreover, the Cmax in data set [2] (15 mg/kg oral (gavage), 0.9% saline, animals 1-4 and Mean) was 131 ng/mL and 191 ng/mL and 178 ng/mL. Further, the AUC0-t in data set [2] (15 mg/kg oral (gavage), t = 2 hr (animals 1, 2, 4) or t = 1 hr (animal 3), individual and Mean) is reported as 105^c ng · hr/mL. In addition, the cell monolayer permeability in the data set with cell monolayer was 0.04 ×10⁻⁶ cm/s.

These data come from patent US20080014256A1 (priority 2005, published 2008).
